Results as given in patent publication US7300947B2, “N-dihydroxyalkyl-substituted 2-oxo-imidazole derivatives” (Banyu Pharmaceutical Co., Ltd., priority 2005, dated 2007).
Structures can show the parent of a compound that is named as a salt.

Assay: Metabolic stability test using human liver microsome
Assay type: in vitro ADME
Settings: human liver microsome 0.25 mg protein/mL, 1 μM test compound, 37° C., after 30 minutes' reaction
Experimental: Pharmacological Test Example 3 (Metabolic Stability Test) Metabolic stability of test compounds was examined using human liver microsome. A 100 mM potassium phosphate buffer (pH 7.4) comprising 10 mM [MUT], 1.0 mM NADP^+, 10 units/mL [MUT] DH, 3.0 mM MgCl2 and 0.25 mg protein/mL of human liver microsome was prepared, each 392 μL of which was poured into plural vessels and preincubated at 37° C. for 5 minutes. […] At the initiation time and 30 minutes thereafter of the reaction, 150 μL of each reaction solution was added to 450 μL of ethanol to suspend the reaction, followed by centrifugal separation (12,000 g, 12 minutes, 4° C.). Resulting supernatant was analyzed with LC/MS/MS. Based on the peak area of the test compound in each sample at the initiating time of the reaction as 100%, the test compound's residual ratio in the sample after 30 minutes' reaction was calculated. Residual ratio(%)= [peak area(after 30 minutes' reaction)/ peak area(0 minute's reaction)]×100.

## CC(O)(CO)Cn1c(=O)n(C2CCN(CC3CCCCC34CC4)CC2)c2ccccc21 (single isomer, unassigned) [Example 4, 1-[(2S or 2R)-2,3-dihydroxy-2-methylpropyl]-3-{1-[(4S)-spiro[2.5]oct-4-ylmethyl]piperidin-4-yl}-1,3-dihydro-2H-benzimidazol-2-one(2R,3R)-3-carboxy-2,3-dihydroxypropionic acid salt]
  Residual Ratio: 72%
